Measurements reported in US9694072B2, “Methods for diagnosing and treating neuroendocrine cancer” (Trustees of Dartmouth College, priority 2005, dated 2017).
Structures can show the parent of a compound that is named as a salt. Where two headings read alike, the source gives them in different places.

Assays:
[1] = tested on: Human tumor xenografts of breast cancer cells; experiment: Breast cancer xenografts treated with anti-NMDAR1 antibodies; design: species or system nu/nu mice; conditions: mouse
Procedure: Human tumor xenografts of breast cancer cells were raised in nu/nu mice, and the influence of anti-NMDAR1 polyclonal antibodies then examined on tumor growth. For antibody studies, growth in a control group (n=4) was compared to tumor growth in animals (n=4) receiving 50 ng of Protein A-isolated, antibody-containing, IgG once each day for 15 days. Tumor was then measured for an […]. While control tumors grew to >20 times their original size, tumors treated with anti-NMDAR1 antibodies shrank to <50% original size and remained at this shrunken size for the duration of treatment (p<<0.0001)(FIG. 7). Tumor size then began very slowly to rise but even 20 days later they were only back to original size (100%). Values are expressed as a percentage of tumor size at day 0 (+/−SEM).

[2] = tested on: SCLC NCI-H345 tumor xenografts; experiment: Treatment of SCLC tumor xenografts in mice; assay type: in vivo, nu/nu mice
Text: Human tumor xenografts of small cell lung cancer (SCLC) cell line NCI-H345 were raised in nu/nu mice, and the influence of the NMDAR1 receptor antagonist dizocilpine maleate (MK-801) then examined on established tumor growth measured by multiplying depth, width, and length determined using a micrometer. Tumor growth in a control group of animals receiving i.p. PBS vehicle (n=4) was compared to tumor growth in animals (n=4) receiving dizocilpine maleate (MK-801) over 10 days. Animals received an escalating single dose of this NMDAR1 antagonist from 0.1 mg/Kg body weight each day for days 0-2, then to a single dose of 0.2 mg/Kg body weight each day for days 3-6, then to a single dose of 0.3 mg/Kg body weight each day for days 7-8. Finally two daily doses of 0.3 mg/Kg body weight were given for days 8-10.
Results were analyzed by Analysis of Variance and the Student-Neuman-Kuels test. Longitudinal growth data was evaluated using repeated measures ANOVA. Significant was determined to be present for p<0.05.

[3] = tested on: SKBr3 breast cancer cells; experiment: Alamar Blue growth/proliferation study; assay type: cell-based, human
[4] = tested on: NCI-H345 classical SCLC cells; experiment: Cell growth/viability assay (Alamar Blue); conditions: for IC50: Homo sapiens
Procedure: Cultures of NCI-H345, NCI-H146, DMS-53 cells (classical cell lines), and NCI-H82 cells (variant cell line) were treated with 0.05% trypsin, washed in phosphate buffered saline (PBS)/glycine and plated onto 96-well plates at 10^4 cells/well in medium for 24 hours to provide time for rectifying possible damage to membrane proteins from the trypsinization. The wells were washed and incubated with PBS/glycine containing albumin (1.25 mg/mL) in the presence or absence of different concentrations (25 μM-800 μM) of either the NMDAR 1 antagonists, Memantine or MK-801; or the NMDAR2B antagonists Ifenprodil and Ro 25-6981 (binders to the polyamine site), or the NMDAR2B antagonists L-701,252 and L-701,324 (binders to the glycine site), or vehicle; and Alamar Blue (1:10 dilution following manufacturer's recommendation). Fluorescent readings were taken at periods representing 24, 48, and 72 hours of incubation with antagonist using a Synergy HT Multi-Detection Microplate Reader and excitation/emission wavelengths of 530 nm and 590 nm. Cell viability was evaluated as % vehicle control at the corresponding incubation time.
This peptide domain is represented in that portion of the mRNA message sequenced by RT-PCR. For studies on cell proliferation, the IgGs of this antiserum were first isolated by precipitation with 50% saturated ammonium sulfate, and antibodies purified from these immunoglobulins by affinity chromatography using a column containing the peptide component of the above antigen coupled to SEPHAROSE (Friedmann, et al. (1994) supra; Keegan, et al. (2002) supra).

[5] = tested on: LNCAP prostate cancer cells; experiment: Prostate cancer cell viability (Alamar Blue); assay type: cell-based, human
Procedure: To determine the effects of NMDAR1 antibodies on prostate cell viability, LNCAP prostate cancer cells were plated in 96 well plates at 1-2×10^4 cells/well. […] Alamar Blue was later added to each well following an incubation period, and fluorescent readings taken at excitation 530-560 nm and emission 590 nm and above on a SYNERGY HT Multi Detection Reader.

DMS-53 cells = experiment: Cell growth/viability assay (Alamar Blue); assay type: cell-based, human; conditions: Homo sapiens, DMS-53, 48 h, read-out: IC50, cell viability
Procedure: (§1) Cultures of NCI-H345, NCI-H146, DMS-53 cells (classical cell lines), and NCI-H82 cells (variant cell line) were treated with 0.05% trypsin, washed in phosphate buffered saline (PBS)/glycine and plated onto 96-well plates at 10^4 cells/well in medium for 24 hours to provide time for rectifying possible damage to membrane proteins from the trypsinization. […] Fluorescent readings were taken at periods representing 24, 48, and 72 hours of incubation with antagonist using a Synergy HT Multi-Detection Microplate Reader and excitation/emission wavelengths of 530 nm and 590 nm. Cell viability was evaluated as % vehicle control at the corresponding incubation time.

[6] = tested on: Ovarian A2780 and A2008 cancer cells; experiment: Ovarian cancer cell growth (Alamar Blue); assay type: cell-based, human
Procedure: Ovarian A2780 and A2008 cancer cells were plated in 96 well plates at 1-2×10^4 cells/well. […] Alamar Blue was later added to each well following an incubation period, and fluorescent readings taken at excitation 530-560 nm and emission of 590 nm and above on a SYNERGY HT Multi Detection Reader. […] Significance was p<0.001 for 400 to 900 μM of MK-801. […] These findings indicate both NMDAR antagonists and anti-NMDA receptor monoclonal antibodies would be of use as effective inhibitors of ovarian tumor xenografts in mice.

[7] = tested on: NCI-H82 variant SCLC cells; experiment: Cell growth/viability assay (Alamar Blue); assay type: cell-based, human; conditions: for IC50: Homo sapiens
Procedure: as §1

[8] = tested on: SKBr3 breast cancer cells; experiment: Alamar Blue growth/proliferation study; assay type: cell-based, human; conditions: SKBr3, NMDAR1 antagonist treatment
Procedure: Results represent triplicate studies performed with Alamar Blue on LAN2 neuroblastoma, MCF-7 breast cancer, and SKBr3 breast cancer cells examining the growth influence of 1 mM glutamate in the presence of glycine over 24 hours.
Results represent triplicate studies performed with Alamar Blue on LAN2 neuroblastoma, MCF-7 breast cancer, and SKBr3 breast cancer cells examining the growth influence of 100 mM Mg^++ in the presence of glycine over 24 hours.

NCI-H146 cells = experiment: Cell growth/viability assay (Alamar Blue); assay type: cell-based, human; conditions: Homo sapiens, NCI-H146, 48 h, read-out: IC50, cell viability
Procedure: as §1

[9] = tested on: MCF-7 breast cancer cells; experiment: Alamar Blue growth/proliferation study; assay type: cell-based, human; conditions: MCF-7, NMDAR1 antagonist treatment

`C[C@]12N[C@H](Cc3ccccc31)c1ccccc12` [MK-801, dizocilpine maleate] was tested, and the “growth of breast cancer tumors in vivo (in words)” value [1] was “completely inhibited growth of these tumors in vivo”, the “behavioral effects in the animals” value ([2]; MK-801 at the dose indicated) was “no noticeable behavioral effects” and the “well-being as exemplified by body weight” value ([2]; MK-801 at the dose indicated) was “no apparent effect on their well-being”. The “Growth of small-cell tumors (in words)” value ([2]; escalating doses from 0.1 mg/kg once daily to 0.3 mg/kg twice daily) was “significantly (p<0.0001) reduced”, the “rate of tumor growth reduced to” value ([2]; i.p., escalating 0.1 to 0.3 mg/Kg over 10 days) was ~60 % that of controls and the “Proliferation of SKBr3 Cells Percent Fluorescence Compared to Control” value ([3]; 100 μM, 24 Hours) was 92.29 ± 6.82%. The “Proliferation of SKBr3 Cells Percent Fluorescence Compared to Control” value ([3]; 100 μM, 48 Hours) was 91.74 ± 2.94%, the “Proliferation of SKBr3 Cells Percent Fluorescence Compared to Control” value ([3]; 100 μM, 72 Hours) was 95.06 ± 1.22% and the “Proliferation of SKBr3 Cells Percent Fluorescence Compared to Control” value ([3]; 200 μM, 24 Hours) was 89.47 ± 5.77%. The “Proliferation of SKBr3 Cells Percent Fluorescence Compared to Control” value ([3]; 200 μM, 48 Hours) was 89.35 ± 2.83%, the “Proliferation of SKBr3 Cells Percent Fluorescence Compared to Control” value ([3]; 200 μM, 72 Hours) was 93.24 ± 1.68% and the “Proliferation of SKBr3 Cells Percent Fluorescence Compared to Control” value ([3]; 300 μM, 24 Hours) was 84.39 ± 5.01%. The “Proliferation of SKBr3 Cells Percent Fluorescence Compared to Control” value ([3]; 300 μM, 48 Hours) was 83.79 ± 2.71%, the “Proliferation of SKBr3 Cells Percent Fluorescence Compared to Control” value ([3]; 300 μM, 72 Hours) was 88.97 ± 2.04% and the “Proliferation of SKBr3 Cells Percent Fluorescence Compared to Control” value ([3]; 400 μM, 24 Hours) was 75.17 ± 4.67%. The “Proliferation of SKBr3 Cells Percent Fluorescence Compared to Control” value ([3]; 400 μM, 48 Hours) was 70.62 ± 2.34%, the “Proliferation of SKBr3 Cells Percent Fluorescence Compared to Control” value ([3]; 400 μM, 72 Hours) was 77.08 ± 2.78% and the “Proliferation of SKBr3 Cells Percent Fluorescence Compared to Control” value ([3]; 500 μM, 24 Hours) was 65.50 ± 3.74%. For the same compound, the “Proliferation of SKBr3 Cells Percent Fluorescence Compared to Control” value ([3]; 500 μM, 48 Hours) was 59.07 ± 2.49%, the “Proliferation of SKBr3 Cells Percent Fluorescence Compared to Control” value ([3]; 500 μM, 72 Hours) was 67.02 ± 5.13% and the “Proliferation of SKBr3 Cells Percent Fluorescence Compared to Control” value ([3]; 600 μM, 24 Hours) was 58.06 ± 3.00%. The “Proliferation of SKBr3 Cells Percent Fluorescence Compared to Control” value ([3]; 600 μM, 48 Hours) was 50.59 ± 2.34%, the “Proliferation of SKBr3 Cells Percent Fluorescence Compared to Control” value ([3]; 600 μM, 72 Hours) was 52.57 ± 2.28% and the “Proliferation of SKBr3 Cells Percent Fluorescence Compared to Control” value ([3]; 700 μM, 24 Hours) was 51.97 ± 2.77%. The “Proliferation of SKBr3 Cells Percent Fluorescence Compared to Control” value ([3]; 700 μM, 48 Hours) was 43.84 ± 3.41%, the “Proliferation of SKBr3 Cells Percent Fluorescence Compared to Control” value ([3]; 700 μM, 72 Hours) was 44.88 ± 3.40% and the “Proliferation of SKBr3 Cells Percent Fluorescence Compared to Control” value ([3]; 800 μM, 24 Hours) was 43.27 ± 2.50%. For the same compound, the “Proliferation of SKBr3 Cells Percent Fluorescence Compared to Control” value ([3]; 800 μM, 48 Hours) was 33.77 ± 4.19%, the “Proliferation of SKBr3 Cells Percent Fluorescence Compared to Control” value ([3]; 800 μM, 72 Hours) was 33.91 ± 4.35% and the “Proliferation of SKBr3 Cells Percent Fluorescence Compared to Control” value ([3]; 900 μM, 24 Hours) was 35.73 ± 2.66%. The “Proliferation of SKBr3 Cells Percent Fluorescence Compared to Control” value ([3]; 900 μM, 48 Hours) was 25.48 ± 5.92%, the “Proliferation of SKBr3 Cells Percent Fluorescence Compared to Control” value ([3]; 900 μM, 72 Hours) was 25.21 ± 5.96% and the “reduced proliferation by” value ([3]; SKBr3, 0.9 mM, 72 hours) was “about 80%”. The IC50 ([4]; NCI-H345, 48 h, read-out: IC50, cell viability) was 300 µM, the IC50 ([4]; NCI-H345, read-out: IC50, cell viability) was roughly 200 µM and the “Cell viability reduced to” value ([4]; NCI-H345, 24, 48, and 72 hours incubation) was “about 10 % of control”. For the same compound, the “effect on cell growth/viability (in words)” value [5] was “significance in reductions was p<0.001 for 400 to 900 μM”, the IC50 (DMS-53 cells) was greater than 800 µM and the “reduction in fluorescent units” value ([6]; at 500, 600, 700, 800, and 900 μM compared to 100, 200 and 400 μM) was “more than 50%”. The “effect on cell growth (in words)” value ([6]; ovarian cancer cells, Alamar Blue) was “dramatic reductions in cell growth”, the IC50 ([7]; NCI-H82, 48 h, read-out: IC50, cell viability) was 300 µM and the IC50 ([7]; NCI-H82, read-out: IC50, cell viability) was roughly 200 µM. For the same compound, the “Cell viability reduced to” value ([7]; NCI-H82, 24, 48, and 72 hours incubation) was “about 10 % of control”, the “effect on proliferation (in words)” value [8] was “decrease proliferation” and the IC50 (NCI-H146 cells) was 650 µM. For the same compound, the “effect on proliferation (in words)” value [9] was “decrease proliferation”.
